Publication PMC2783175 (Archives of biochemistry and biophysics, 2009)

Target: T1, Cystathionine β-synthase (CBS) (Homo sapiens, UniProt P35520)
T1 sequence (P35520 1-408): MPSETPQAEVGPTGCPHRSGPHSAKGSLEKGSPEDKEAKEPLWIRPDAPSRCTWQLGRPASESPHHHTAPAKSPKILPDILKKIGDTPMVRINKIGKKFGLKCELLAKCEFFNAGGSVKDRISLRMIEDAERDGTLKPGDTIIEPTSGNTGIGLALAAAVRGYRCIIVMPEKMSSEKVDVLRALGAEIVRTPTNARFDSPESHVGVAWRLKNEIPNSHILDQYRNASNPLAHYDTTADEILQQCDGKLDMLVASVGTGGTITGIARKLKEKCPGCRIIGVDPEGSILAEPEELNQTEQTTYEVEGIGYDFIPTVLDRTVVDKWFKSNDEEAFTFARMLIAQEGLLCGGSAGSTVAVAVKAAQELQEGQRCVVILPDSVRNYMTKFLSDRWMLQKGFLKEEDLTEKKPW
Assay: Loss of purified enzyme activity
Format: biochemical

O=NOO [peroxynitrite, oxoperoxonitrate(1-)]
IC50: ~150 µM
